Experiments:
[1] = tested on: CD34+ progenitor cells; test: Fetal hemoglobin induction in CD34+ cells with SCF and Epo, compared or combined with hydroxyurea and 5-azacytidine; assay type: cell-based; conditions: for fetal hemoglobin expression: flow cytometry
Experimental: FIG. 10 depicts the increase in expression of fetal hemoglobin due to 4-(Amino)-2-(2,6-dioxo(3-piperidyl))-isoindoline-1,3-dione over that induced by hydroxyurea or 5-azacytidine. Cells were cultured for six days in the presence of SCF (50 ng/ml) and Epo (2 U/ml), and either DMSO (control), 4-(Amino)-2-(2,6-dioxo(3-piperidyl))-isoindoline-1,3-dione (0.1, 1, 10 μM), 5-azacytidine (0.1, 1 μM; toxic at 10 μM) or hydroxyurea (0.1, 1, 10 μM).
As previously, CD34^+ progenitor cells were first expanded with a combination of growth factors (SCF, Flt3-L and IL-3) for 6 days, and erythroid differentiation was then induced with SCF and Epo for 6 days. During the erythroid differentiation period CD34^+ cells were cultured in the presence or absence of IMiDs™, alone or in combination with either hydroxyurea and 5-azacytidine, in order to compare the effect of IMiDs™ to these two known inducers of fetal hemoglobin synthesis. On day 6 of differentiation, the hemoglobin content of the cells was measured by flow cytometry. […] The induction of fetal hemoglobin production was, however, more pronounced with IMiD in comparison to hydroxyurea or 5-azacytidine, with a 10 fold induction in the presence of 10 μM of 4-(Amino)-2-(2,6-dioxo(3-piperidyl))-isoindoline-1,3-dione.

[2] = tested on: BM-CD34+ cells; test: CD34+ cell differentiation with SCF, Flt3-L, GM-CSF and TNFα; microarray gene expression; assay type: cell-based
Experimental: (§1) BM-CD34^+ cells were obtained from Cambrex (East Rutherford, N.J.) and cultured in Iscove's MDM with BIT 95000 (StemCell Technologies, UK) in the presence of stem cell factor (SCF), Flt3-L, granulocyte macrophage-colony stimulating factor (GM-CSF) and TNFα for 6 days. To study the effect of 4-(Amino)-2-(2,6-dioxo(3-piperidyl))-isoindoline-1,3-dione on the generation of dendritic cells, CD34^+ progenitor cells were cultured with or without 4-(Amino)-2-(2,6-dioxo(3-piperidyl))-isoindoline-1,3-dione for a period of 6 days. Phenotypic characterization of the cells for erythroid markers (CD36, CD71, glycophorin A and fetal hemoglobin) was established by flow cytometry after six days of culture. Gene expression was monitored by microarray analysis at day 1, day 3 and day 6 of CD34^+ differentiation (FIG. 1).
RNA purification and microarray analysis. Total RNA was isolated from CD34^+ cells using RNAeasy (Qiagen). Affymetrix U133A gene chips were used for gene expression analysis. Briefly, double-stranded cDNA was synthesized using 5 μg of total RNA. Biotin-labeled cRNA was synthesized using MessageAmp aRNA kit (Ambion), 15 μg of cRNA was fragmented and hybridized to each array. The above procedures were done twice for each RNA sample to obtain replicate biotin-labeled probes. The results from the replicate chips were averaged for calculation of the fold differences.

[3] = tested on: BM-CD34+ progenitors; test: Erythroid differentiation of expanded CD34+ cells with SCF and Epo; flow cytometry and cell counts; assay type: cell-based; conditions: 6 days
Experimental: Differentiation of bone marrow (BM) CD34^+ hematopoietic progenitor cells: BM-CD34^+ progenitors were obtained from Cambrex and cultured in Iscove's MDM with BIT 95000 (serum substitute; StemCell technologies) in the presence of growth factors. During the first 6 days CD34^+ cells were expanded with SCF (100 ng/ml), Flt3-L (100 ng/ml) and IL-3 (20 ng/ml), and then differentiated toward the erythroid lineage by culture in the presence of SCF (50 ng/ml), and Epo (2U or 4U/ml) for 6 days. To study the effect of IMiDs™, CD34^+ progenitors cells were differentiated for a period of 6 days in the presence or absence of 4-(Amino)-2-(2,6-dioxo(3-piperidyl))-isoindoline-1,3-dione or 3-(4-amino-1-oxo-1,3-dihydroisoindol-2-yl)-piperidine-2,6-dione. (FIG. 6)
Flow cytometry: Surface antigen expression was analyzed by flow cytometry (FACScan, Coulter) after 6 days of culture. Cells were processed for double staining (30 min at 4° C.) at day 6 using FITC and PE conjugated monoclonal antibodies (mAbs). Antibodies used were: CD34-PE, CD36-FITC, CD71-FITC and Glycophorin A-PE, all from BD Pharmingen (San Diego, Calif.). After 6 days of culture, cells were washed with phosphate-buffered saline (PBS), fixed with 2% paraformaldehyde, permeabilized with cytopermeafix (BD Pharmingen) and stained with HbF-PE (BD Pharmingen, San Diego, Calif.), Hbε-FITC (Cortex Biochem, San Leandro, Calif.) mAbs and HbA-FITC (Perkin Elmer) and analyzed by flow cytometry (FACScan, Coulter or FCASAria, BD Pharmingen).

[4] = tested on: STAT5; test: Epo-induced STAT5 phosphorylation in UT-7 cells; assay type: cell-based, human; conditions: 10 μM, 45 min pre-incubation, Epo 10 U/ml for 10 minutes
Source text: To further characterize the synergy of Epo and IMiDs™ on erythroid cells, we have performed signaling experiments in a UT-7 cell line, in particular, to determine the effect if IMiDs on the expression of STAT5, which is known to be activated upon the binding Epo to the erythropoietin receptor (EpoR). UT-7 is a human leukemia cell line absolutely dependent upon erythropoietin for proliferation, and was isolated from a patient with acute myeloid leukemia (AML M7). The level of EpoR expression in these cells is around 60%.
To study the role of IMiDs™ in Epo signaling, we stimulated UT-7 cells with Epo in the presence or absence of 4-(Amino)-2-(2,6-dioxo(3-piperidyl))-isoindoline- 1,3-dione as follows. UT-7 cells were expended in RPMI medium with 10% FBS and GM-CSF (5 ng/ml). The cells were serum and growth factor starved overnight, then pre-incubated for 45 minutes with 10 μM of 4-(Amino)-2-(2,6-dioxo(3-piperidyl))-isoindoline-1,3-dione or DMSO control, and stimulated with Epo (10 U/ml) for 10 minutes. 4-(Amino)-2-(2,6-dioxo(3-piperidyl))-isoindoline-1,3-dione increased Epo-induced STAT5 (Tyr694) phosphorylation by 2 fold (FIG. 12). This effect was detected within 10 minutes of stimulation with Epo.

[5] = tested on: BM-CD34+ cells; test: CD34+ cell differentiation with SCF, Flt3-L, GM-CSF and TNFα; flow cytometry of erythroid markers; assay type: cell-based; conditions: 0.01-100 μM, six days of culture
Experimental: as §1

[6] = Cardiovascular and respiratory function in anesthetized dogs; assay type: in vivo, Beagle dogs
Experimental: The effects of 3-(4-amino-1-oxo-1,3-dihydro-isoindol-2-yl)-piperidine-2,6-dione on cardiovascular and respiratory function are investigated in anesthetized dogs. Two groups of Beagle dogs (2/sex/group) are used. One group receives three doses of vehicle only and the other receives three ascending doses of 3-(4-amino-1-oxo-1,3-dihydro-isoindol-2-yl)-piperidine-2,6-dione (2, 10, and 20 mg/kg). In all cases, doses of 3-(4-amino-1-oxo-1,3-dihydro-isoindol-2-yl)-piperidine-2,6-dione or vehicle are successively administered via infusion through the jugular vein separated by intervals of at least 30 minutes.

NC(=O)NO [Hydroxyurea, hydroxyurea, reference compound]
fetal hemoglobin expression ([1]; day 6 of differentiation): increased fetal hemoglobin expression

Nc1ncn([C@@H]2O[C@H](CO)[C@@H](O)[C@H]2O)c(=O)n1 [5-azacytidine, reference compound]
toxicity to cultured CD34+ cells ([1]; 10 μM): toxic
fetal hemoglobin expression ([1]; day 6 of differentiation): increased fetal hemoglobin expression

Nc1cccc2c1C(=O)N(C1CCC(=O)NC1=O)C2=O (stereo not shown) [4-(Amino)-2-(2,6-dioxo(3-piperidyl))-isoindoline-1,3-dione]
expression of genes encoding glycophorin B, rhesus blood group associated glycoprotein, Kell blood group precursor, EDRF/AHSP, erythroid Kruppel-like transcription factor ([2]; SCF, Flt3-L, GM-CSF and TNFα): upregulated
gene expression profile of erythroid-specific genes ([2]; SCF, Flt3-L, GM-CSF and TNFα): upregulated
increase of embryonic hemoglobin ε gene expression ([2]; day 6 of CD34+ differentiation, vs DMSO): 18 fold
adult hemoglobin (HbA) expression [3]: decrease
induction of hemoglobin F in erythroid precursors [3]: potent inducers of hemoglobin F
cells expressing fetal hemoglobin ([3]; 0.001-10 μM, vs DMSO): increase
expression of glycophorin A ([3]; FACS): slight decrease
increase of Epo-induced STAT5 (Tyr694) phosphorylation [4]: 2 fold
expression of fetal hemoglobin [5]: increased in a dose-dependent manner
expression of glycophorin A [5]: increased in a dose-dependent manner
induction of fetal hemoglobin production ([1]; 10 μM, day 6 of differentiation): 10 fold
fetal hemoglobin expression in combination with hydroxyurea ([1]; combination with hydroxyurea, six days, SCF and Epo): striking synergy

Nc1cccc2c1CN(C1CCC(=O)NC1=O)C2=O (stereo not shown) [3-(4-amino-1-oxo-1,3-dihydroisoindol-2-yl)-piperidine-2,6-dione]
cardiovascular and respiratory changes ([6]; 2, 10 and 20 mg/kg by jugular vein infusion, vs vehicle): minimal at all doses
deviations in femoral blood flow, respiratory parameters, and Qtc interval ([6]; common to control and treated groups): not considered treatment-related
duration of the arterial blood pressure increase ([6]; low dose, not seen at higher doses): approximately 15 minutes
arterial blood pressure ([6]; low dose, small increase from 94 mmHg): 101 mmHg
induction of hemoglobin F in erythroid precursors [3]: potent inducers of hemoglobin F
expression of fetal hemoglobin [5]: increased in a dose-dependent manner
expression of glycophorin A [5]: increased in a dose-dependent manner
